Measurements as given in US20060035317A1, “Effect of treatment with 4,5-dihydroxy-2-cyclopenten-1-one (dhcp) on gene expression and quorum-sensing in bacteria” (priority 2002, published 2006).
Values joined by “and” are separate entries in the source; they are usually repeats but may differ in a detail not shown here. Identical values can stand only once.

System: E. coli wild-type strain JM83 (gene expression)
Assay: DNA microarray analysis of mRNA levels in DHCP-treated vs control cells
Assay type: cell-based
Conditions: DHCP 250 μM, 8 h
Method: E. coli wild-type strain JM83 [F^− araΔ(lac-proAB) rpsL(str^r)] (Yanisch-Perron et al., 1985) was grown in Luria broth (LB). V. harveyi strains BB152 and BB170 were a gift from Dr. Bonnie Bassler (Princeton University). These strains were grown in AB medium as described previously (Surette et al., 1999).
E. coli cells grown overnight in LB medium were diluted into fresh LB medium. After the growth reached a Klett unit of 50, DHCP was added (250 μM) and growth was further monitored. After growth reached a Klett unit of 90-100, it was diluted 10-fold into a medium containing the same concentration of DHCP as described previously (Phadtare et al., 2001). The cells were harvested after a total of 8 h of incubation with DHCP. […] The total RNA was extracted by the hot phenol method described previously (Sarmientos et al., 1983). It was further purified by RNeasy Minikit (Qiagen) and was then treated with DNase I followed by phenol-chloroform treatment and ethanol precipitation. It was quantified by measuring absorbance at 260 nm. The purity of RNA was confirmed by agarose gel electrophoresis.
The mRNAs were labeled with Cy3-dUTP and Cy5-dUTP (Amersham Pharmacia). Random Hexamer pd(N)6 (Amersham Pharmacia) was used as a primer and the IntelliGene E. coli CHIP Version 1 (Takara Shuzo, Co. Ltd., Japan) the DNA microarray was used. This represents the entire ORF of E. coli K-12 W3110.
The cell densities of the control (untreated) and the DHCP-treated cells used were the same; thus, the changes seen in the microarray were not substantially influenced by the difference in cell densities. RNAs isolated from the respective cells were used to generate probes for hybridization of DNA arrays and the data were quantified as described in the Materials and Methods section of this Example. Calculation of the log expression ratios of the corresponding spots allowed pair-wise comparisons of the relative transcript levels for each of the E. coli genes under the two growth conditions. Only those genes whose expression levels differed by log ratio of at least four were considered. In some cases, genes belonging to same operon or category were considered even if the log ratios differed by the factor of only three or little less than three. Log ratios above zero value indicate induction and below zero value indicate repression by DHCP treatment. […] The results of both methods are in agreement with each other.

## O=C1C=CC(O)C1O (centres unmarked) [DHCP, 4,5-dihydroxy-2-cyclopenten-1-one]
Cys regulon genes cysA, cysD, cysH, cysI, cysJ, cysk, cysM, cysN, cysP, cysQ, cysU, cysW
  Increase of mRNA levels: 3-20 times
Gene CysH (Adenylsulphate reductase)
  Ratio (DHCP-treated/control): 6.50
Gene CysI (Sulfite reductase(NADPH) alpha subunit)
  Ratio (DHCP-treated/control): 7.30
Gene CysJ (Sulfite reductase(NADPH) beta subunit)
  Ratio (DHCP-treated/control): 4.70
Gene CysK (Cysteine synthase)
  Ratio (DHCP-treated/control): 20
Gene CysM (O-acetylserine (thiol)-lyase B)
  Ratio (DHCP-treated/control): 3.00
Gene CysN (Sulfate adenylyltransferase)
  Ratio (DHCP-treated/control): 5.00
Gene CysP (Thiosulfate-binding protein CysP precursor)
  Ratio (DHCP-treated/control): 3.55
Gene CysQ (Ammonium transport protein CysQ)
  Ratio (DHCP-treated/control): 3.28
Gene CysW (Sulfate/thiosulfate transport protein CysW)
  Ratio (DHCP-treated/control): 15.00
Gene EntA (2,3-dihydro-2,3-dihydroxybenzoate)
  Ratio (DHCP-treated/control): 0.44
Gene EntB (Isochorismatase)
  Ratio (DHCP-treated/control): 0.23
Gene EntC (Isochorismate synthase)
  Ratio (DHCP-treated/control): 0.45
Gene EntE (Enterochelin synthetase)
  Ratio (DHCP-treated/control): 0.32
Gene Fbp (Fructose-1,6-biphosphatase)
  Ratio (DHCP-treated/control): 4.00
Gene FruB (PTS system)
  Ratio (DHCP-treated/control): 0.12
Gene FruK (I-phosphofructokinase)
  Ratio (DHCP-treated/control): 0.03
Gene GalM (Aldose 1-epimerase)
  Ratio (DHCP-treated/control): 4.00
Gene Gale (UDP-glucose 4-epimerase)
  Ratio (DHCP-treated/control): 4.60
Gene MarA (Multiple antibiotic resistance protein MarA)
  Ratio (DHCP-treated/control): 5
Gene MdaB (Modulator of drug activity)
  Ratio (DHCP-treated/control): 10
Gene TalA (Patatire transaldolase)
  Ratio (DHCP-treated/control): 7.6
Gene TehB (Tellurite resistance protein TehB)
  Ratio (DHCP-treated/control): 5
Gene YidS (unknown function or class)
  Ratio (DHCP-treated/control): 4
Gene ZipA (Cell division protein)
  Ratio (DHCP-treated/control): 4.50
Gene ackA
  Decrease of mRNA level: 3.6 times
Gene ansP (L-asparagine permease)
  Ratio (DHCP-treated/control): 0.29
Gene atoE (Short-chain fatty acids)
  Ratio (DHCP-treated/control): 0.17
Gene atzN (Zinc-transporting ATPase)
  Ratio (DHCP-treated/control): 11 and 11.30
Gene cheA (Chemotaxis protein CheA)
  Ratio (DHCP-treated/control): 0.25
Gene cpxP (Periplasmic protein precursor)
  Ratio (DHCP-treated/control): 4.95
Gene creD (Inner-membrane protein CreD)
  Ratio (DHCP-treated/control): 47
Gene cysU (Sulfate transport system permease)
  Ratio (DHCP-treated/control): 4.99
Gene czcD (Cation efflux protein CzcD)
  Ratio (DHCP-treated/control): 3.60
Gene dps (DNA-binding protein Dps)
  Ratio (DHCP-treated/control): 13
Gene fadL (Long-chain fatty acid transport protein)
  Ratio (DHCP-treated/control): 0.10
Gene fecA (Iron(III) dicitrate transport protein FecA)
  Ratio (DHCP-treated/control): 0.16
Gene fecB (Iron(III) dicitrate-binding protein)
  Ratio (DHCP-treated/control): 0.15
Gene fecC (FecC protein)
  Ratio (DHCP-treated/control): 0.21
Gene fecD (Iron(III) dicitrate transport system protein)
  Ratio (DHCP-treated/control): 0.15
Gene fecE (Iron(III) dicitrate transport protein)
  Ratio (DHCP-treated/control): 0.11
Gene fepA (Ferrienterochelin receptor precursor)
  Ratio (DHCP-treated/control): 0.25
Gene fepC (Ferric enterobactin transport protein FepC)
  Ratio (DHCP-treated/control): 0.40
Gene fruB
  Inhibition of mRNA level: 8 times
Gene fruK
  Inhibition of mRNA level: 33 times
Gene glf (UDP-galactopyranose mutase)
  Ratio (DHCP-treated/control): 0.20
Gene hdeB (10k-1 protein precursor)
  Ratio (DHCP-treated/control): 6.00
Gene katG (Catalase HPI)
  Ratio (DHCP-treated/control): 9.00
Gene lysP (Lysin-specific permease)
  Ratio (DHCP-treated/control): 0.16
Gene motA (Chemotaxis protein MotA)
  Ratio (DHCP-treated/control): 0.18
Gene motB (Chemotaxis protein MotB)
  Ratio (DHCP-treated/control): 0.40
Gene msyB (Membrane protein)
  Ratio (DHCP-treated/control): 4.25
Gene nmpC (Outer membrane porin protein precursor)
  Ratio (DHCP-treated/control): 0.01
Gene ompA (Outer membrane protein a precursor)
  Ratio (DHCP-treated/control): 0.23
Gene ompC (Outer membrane protein c precursor)
  Ratio (DHCP-treated/control): 0.20
Gene ompF (Outer membrane protein f precursor)
  Ratio (DHCP-treated/control): 0.06
Gene ompT (ProteinaseVII)
  Ratio (DHCP-treated/control): 0.11
Gene osmY (Hyperosmotically induced protein)
  Ratio (DHCP-treated/control): 12.00
Gene otsA (Tehalose-6-phosphate synthase)
  Ratio (DHCP-treated/control): 11.00
Gene pheP (phenylalanine transport protein pheP)
  Ratio (DHCP-treated/control): 0.13
Gene plsX (PlsX protein)
  Ratio (DHCP-treated/control): 0.28
Gene potA (Spermidine/putrescine transport protein A)
  Ratio (DHCP-treated/control): 0.13
Gene potB (Spermidine/putrescine transport system)
  Ratio (DHCP-treated/control): 0.13
Gene potC (Spermidine/putrescine transport system)
  Ratio (DHCP-treated/control): 0.20
Gene potD (Spermidine/putrescine transport protein D)
  Ratio (DHCP-treated/control): 0.19
Gene poxB (Pyruvate dehydrogenase)
  Ratio (DHCP-treated/control): 15.00
Gene rfc (Probably O-antigen polymerase)
  Ratio (DHCP-treated/control): 0.23
Gene rplA (Ribosomal protein L1)
  Ratio (DHCP-treated/control): 0.23
Gene rplB (Ribosomal protein L2)
  Ratio (DHCP-treated/control): 0.25
Gene rplC (Ribosomal protein L3)
  Ratio (DHCP-treated/control): 0.28
Gene rplD (Ribosomal protein L4)
  Ratio (DHCP-treated/control): 0.27
Gene rplE (Ribosomal protein L5)
  Ratio (DHCP-treated/control): 0.34
Gene rplF (Ribosomal protein L6)
  Ratio (DHCP-treated/control): 0.30
Gene rplI (Ribosomal protein L9)
  Ratio (DHCP-treated/control): 0.25
Gene rplJ (Ribosomal protein L10)
  Ratio (DHCP-treated/control): 0.28
Gene rplK (Ribosomal protein L11)
  Ratio (DHCP-treated/control): 0.39
Gene rplM (Ribosomal protein L13)
  Ratio (DHCP-treated/control): 0.49
Gene rplN (Ribosomal protein L14)
  Ratio (DHCP-treated/control): 0.44
Gene rplO (Ribosomal protein L15)
  Ratio (DHCP-treated/control): 0.36
Gene rplP (Ribosomal protein L16)
  Ratio (DHCP-treated/control): 0.36
Gene rplQ (Ribosomal protein L17)
  Ratio (DHCP-treated/control): 0.47
Gene rplR (Ribosomal protein L18)
  Ratio (DHCP-treated/control): 0.38
Gene rplS (Ribosomal protein L19)
  Ratio (DHCP-treated/control): 0.35
Gene rplV (Ribosomal protein L22)
  Ratio (DHCP-treated/control): 0.28
Gene rplW (Ribosomal protein L23)
  Ratio (DHCP-treated/control): 0.27
Gene rplX (Ribosomal protein L24)
  Ratio (DHCP-treated/control): 0.31
Gene rplY (Ribosomal protein L25)
  Ratio (DHCP-treated/control): 0.28
Gene rpmB (Ribosomal protein L28)
  Ratio (DHCP-treated/control): 0.45
Gene rpmE (Ribosomal protein L31)
  Ratio (DHCP-treated/control): 0.39
Gene rpoS (RNP polymerase sigma factor RpoS)
  Ratio (DHCP-treated/control): 4
Gene sdaC (Probable serine transport protein)
  Ratio (DHCP-treated/control): 0.25
Gene secF (Secretion protein SecF)
  Ratio (DHCP-treated/control): 0.26
Gene secG (P12 cytoplasmic membrane protein)
  Ratio (DHCP-treated/control): 0.30
Gene secY (SecY protein)
  Ratio (DHCP-treated/control): 0.40
Gene tsr (Methyl-accepting chemotaxis protein1(mcp-1))
  Ratio (DHCP-treated/control): 0.22
Gene tsx (Nucleoside-specific channel-forming protein)
  Ratio (DHCP-treated/control): 0.22
Gene wrbA (Trp repressor binding protein)
  Ratio (DHCP-treated/control): 14.00
Gene yieI (unknown function or class)
  Ratio (DHCP-treated/control): 4
Gene znu (High-affinity zinc uptake system protein)
  Ratio (DHCP-treated/control): 0.13
Genes ackA, pta, radc, malE and trgB
  Induction of CreBC-regulated genes: not induced
Genes astD, tnaB and gabT
  Induction of genes: not induced
Genes cysG and cysS (not in Cys regulon)
  Effect on mRNA levels: not affected
Genes encoding outer membrane proteins (Omp)
  Decrease of mRNA levels: 5-15 times
Genes motA, motB and cheA (motor action)
  Decrease of mRNA levels: 4-6 times
Genes parc and parE (topoisomerase IV subunits)
  Change of mRNA levels: did not change
Genes rfa, wzb or hha
  Change of mRNA levels: did not change significantly
Most of the genes encoding ribosomal L proteins
  Reduction of mRNA levels: 2-3 times
